In one test the target is T1, Mouse AhR (Mus musculus, UniProt P30561).
T1 sequence (P30561 1-848): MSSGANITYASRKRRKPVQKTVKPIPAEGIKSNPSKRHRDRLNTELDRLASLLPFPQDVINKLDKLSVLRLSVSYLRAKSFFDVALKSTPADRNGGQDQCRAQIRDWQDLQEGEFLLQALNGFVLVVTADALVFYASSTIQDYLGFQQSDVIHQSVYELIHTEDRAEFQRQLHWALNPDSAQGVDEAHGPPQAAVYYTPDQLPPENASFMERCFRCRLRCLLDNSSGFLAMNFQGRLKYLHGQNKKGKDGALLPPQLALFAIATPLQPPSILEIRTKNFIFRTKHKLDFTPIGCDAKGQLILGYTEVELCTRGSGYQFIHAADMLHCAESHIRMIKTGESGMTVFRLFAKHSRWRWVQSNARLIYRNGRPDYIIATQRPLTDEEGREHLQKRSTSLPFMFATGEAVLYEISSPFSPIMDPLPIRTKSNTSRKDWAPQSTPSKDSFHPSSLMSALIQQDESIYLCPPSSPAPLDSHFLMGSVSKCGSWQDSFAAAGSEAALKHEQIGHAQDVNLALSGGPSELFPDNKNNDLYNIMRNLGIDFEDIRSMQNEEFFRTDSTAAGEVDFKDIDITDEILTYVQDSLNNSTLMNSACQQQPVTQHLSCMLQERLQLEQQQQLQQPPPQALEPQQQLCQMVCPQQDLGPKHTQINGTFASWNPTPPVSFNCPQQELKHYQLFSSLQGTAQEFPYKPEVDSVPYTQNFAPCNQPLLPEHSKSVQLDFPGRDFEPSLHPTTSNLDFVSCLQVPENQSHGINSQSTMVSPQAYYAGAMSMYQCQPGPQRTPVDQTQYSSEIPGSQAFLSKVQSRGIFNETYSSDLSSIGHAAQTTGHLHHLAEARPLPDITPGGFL
Put plainly: Transactivation assay in mouse cell line (in vitro assay 2: antagonism). Format: cell-based. Conditions: Hepa 1c1c7 cells, AHR inducible (DRE) firefly luciferase reporter, 200 μM kynurenic acid, 20 hours. The procedure, abridged:
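Hepa 1c1c7 cells express AhR endogenously and stably carry a DRE-driven firefly luciferase reporter. They were prestimulated with the agonist kynurenic acid before compound testing for antagonism. Luciferase read by SteadyGlo luminescence.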

For a further test, the target named is T2, Human AhR (Homo sapiens, UniProt P35869).
T2 construct: host or cells: U87 glioblastoma cells, stably transfected with DRE-driven firefly luciferase and constitutive renilla reporter constructs
T2 sequence (P35869 11-848): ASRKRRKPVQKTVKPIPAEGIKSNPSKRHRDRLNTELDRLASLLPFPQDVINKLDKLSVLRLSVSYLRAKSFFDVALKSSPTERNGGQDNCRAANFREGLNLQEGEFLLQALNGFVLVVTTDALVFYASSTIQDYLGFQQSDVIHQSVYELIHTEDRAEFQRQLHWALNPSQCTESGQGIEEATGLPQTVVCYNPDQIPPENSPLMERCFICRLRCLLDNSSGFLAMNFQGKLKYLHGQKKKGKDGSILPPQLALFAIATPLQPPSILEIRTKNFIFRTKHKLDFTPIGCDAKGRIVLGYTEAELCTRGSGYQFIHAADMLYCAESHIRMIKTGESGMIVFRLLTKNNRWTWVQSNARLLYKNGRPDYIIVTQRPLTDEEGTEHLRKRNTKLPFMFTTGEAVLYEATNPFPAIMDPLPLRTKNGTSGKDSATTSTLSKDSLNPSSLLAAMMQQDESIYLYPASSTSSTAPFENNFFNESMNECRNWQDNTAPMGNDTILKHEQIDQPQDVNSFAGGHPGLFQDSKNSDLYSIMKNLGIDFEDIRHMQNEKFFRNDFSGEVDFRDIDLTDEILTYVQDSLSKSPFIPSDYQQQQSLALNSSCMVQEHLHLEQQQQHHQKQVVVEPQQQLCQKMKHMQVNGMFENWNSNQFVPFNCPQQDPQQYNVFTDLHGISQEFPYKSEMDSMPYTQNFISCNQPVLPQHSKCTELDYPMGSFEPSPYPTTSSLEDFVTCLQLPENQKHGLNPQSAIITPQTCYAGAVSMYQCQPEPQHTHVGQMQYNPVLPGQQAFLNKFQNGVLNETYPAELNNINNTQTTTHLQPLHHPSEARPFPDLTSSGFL
Put plainly: Transactivation assay in human cell line (in vitro assay 1: antagonism). Format: cell-based. Conditions: U87 glioblastoma cells, AHR inducible (DRE) firefly luciferase reporter, 150 μM kynurenic acid, 20 hours. The procedure, abridged:
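U87 glioblastoma cells with endogenous AHR, stably carrying DRE-driven firefly luciferase and constitutive Renilla reporters, prestimulated with kynurenic acid before compound. Dual luciferase read-out; Renilla signal used to flag toxicity.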

The values below come from US11304946B2, “2-hetarylpyrimidine-4-carboxamides as aryl hydrocarbon receptor antagonists” (Bayer Aktiengesellschaft, priority 2017, dated 2022).

On to `Cn1cc(-c2nc(C(=O)N[C@H](CO)C(C)(C)C)cc(-c3ccc(OC(F)(F)F)cc3)n2)cn1` [Example 88, N-[(2S)-1-hydroxy-3,3-dimethylbutan-2-yl]-2-(1-methyl-1H-pyrazol-4-yl)-6-[4-(trifluoromethoxy)phenyl]pyrimidine-4-carboxamide], for which the IC50 against Mouse AhR came out at 8.19 nM; against Human AhR, 20.4 nM.

For `Cn1cc(-c2nc(C(=O)NC(CO)(CO)C(F)(F)F)cc(-c3ccc(OC(F)(F)F)cc3)n2)cn1` [Example 89, 2-(1-methyl-1H-pyrazol-4-yl)-N-[1,1,1-trifluoro-3-hydroxy-2-(hydroxymethyl)propan-2-yl]-6-[4-(trifluoromethoxy)phenyl]pyrimidine-4-carboxamide], the IC50 came out at 4.34 nM against Mouse AhR and 7.95 nM on Human AhR.

Regarding `Cn1cc(-c2nc(C(=O)NC(CO)Cc3cccnc3)cc(-c3ccc(OC(F)(F)F)cc3)n2)cn1` (stereo not shown) [Example 93, N-[1-hydroxy-3-(pyridin-3-yl)propan-2-yl]-2-(1-methyl-1H-pyrazol-4-yl)-6-[4-(trifluoromethoxy)phenyl]pyrimidine-4-carboxamide], the IC50 on Mouse AhR stood at 16.5 nM; against Human AhR it was 34.1 nM.

For the compound `Cn1cc(-c2nc(C(=O)NC(CO)C3CCC3)cc(-c3ccc(OC(F)(F)F)cc3)n2)cn1` (stereo not shown) [Example 94, N-(1-cyclobutyl-2-hydroxyethyl)-2-(1-methyl-1H-pyrazol-4-yl)-6-[4-(trifluoromethoxy)phenyl]pyrimidine-4-carboxamide], the IC50 was 24.3 nM against Mouse AhR and 5.44 nM against Human AhR.

Take `Cn1cc(-c2nc(C(=O)N[C@H](CO)CF)cc(-c3ccc(OC(F)(F)F)cc3)n2)cn1` [Example 95, N-[(2R)-1-fluoro-3-hydroxypropan-2-yl]-2-(1-methyl-1H-pyrazol-4-yl)-6-[4-(trifluoromethoxy)phenyl]pyrimidine-4-carboxamide]: the IC50 came out at 4 nM against Mouse AhR and 3.48 nM at Human AhR.

For `Cn1cc(-c2nc(C(=O)N[C@H](CO)C3CC3)cc(-c3ccc(OC(F)(F)F)cc3)n2)cn1` [Example 99, N-[(1S)-1-cyclopropyl-2-hydroxyethyl]-2-(1-methyl-1H-pyrazol-4-yl)-6-[4-(trifluoromethoxy)phenyl]pyrimidine-4-carboxamide], the IC50 at Mouse AhR came to 21.5 nM; against Human AhR, 17.6 nM.

Regarding `Cn1cc(-c2nc(C(=O)N[C@@H](C#N)CO)cc(-c3ccc(OC(F)(F)F)cc3)n2)cn1` [Example 101, N-[(1S)-1-cyano-2-hydroxyethyl]-2-(1-methyl-1H-pyrazol-4-yl)-6-[4-(trifluoromethoxy)phenyl]pyrimidine-4-carboxamide], the IC50 amounted to 18.9 nM against Mouse AhR and 22.3 nM on Human AhR.

Regarding `C[C@H](NC(=O)c1cc(-c2ccc(OC(F)(F)F)cc2)nc(-c2cnn(C)c2)n1)C(C)(C)O` [Example 102, N-[(2S)-3-hydroxy-3-methylbutan-2-yl]-2-(1-methyl-1H-pyrazol-4-yl)-6-[4-(trifluoromethoxy)phenyl]pyrimidine-4-carboxamide], the IC50 against Mouse AhR stood at 3.26 nM; on Human AhR it was 6.86 nM.

For `Cn1cc(-c2nc(C(=O)N[C@H]3COC[C@H]3O)cc(-c3ccc(OC(F)(F)F)cc3)n2)cn1` [Example 103, N-[(3S,4S)-4-hydroxytetrahydrofuran-3-yl]-2-(1-methyl-1H-pyrazol-4-yl)-6-[4-(trifluoromethoxy)phenyl]pyrimidine-4-carboxamide], the figures for the IC50 at Mouse AhR and at Human AhR were 5.82 nM and 6.74 nM, respectively.

For the compound `CC(NC(=O)c1cc(-c2ccc(OC(F)(F)F)cc2)nc(-c2cnn(C)c2)n1)C(O)CO` (stereo not shown) [Example 104, N-(3,4-dihydroxybutan-2-yl)-2-(1-methyl-1H-pyrazol-4-yl)-6-[4-(trifluoromethoxy)phenyl]pyrimidine-4-carboxamide], the IC50 worked out at 20.4 nM against Mouse AhR and 12.5 nM on Human AhR.

In the case of `Cn1cc(-c2nc(C(=O)NC3CCCC(F)(F)C3O)cc(-c3ccc(OC(F)(F)F)cc3)n2)cn1` (stereo not shown) [Example 106, N-(3,3-difluoro-2-hydroxycyclohexyl)-2-(1-methyl-1H-pyrazol-4-yl)-6-[4-(trifluoromethoxy)phenyl]pyrimidine-4-carboxamide], the figures for the IC50 against Mouse AhR and at Human AhR were 20 nM and 7.32 nM, respectively.

`C[C@@H](CO)NC(=O)c1cc(-c2ccc(C(F)(F)F)cc2)nc(-c2cccnc2)n1` [Example 117, N-[(2S)-1-hydroxypropan-2-yl]-2-(pyridin-3-yl)-6-[4-(trifluoromethyl)phenyl]pyrimidine-4-carboxamide]: the IC50 against Mouse AhR amounted to 1.33 nM; against Human AhR, 1.26 nM.

As to `O=C(N[C@H]1COC[C@@H]1O)c1cc(-c2ccc(OC(F)(F)F)cc2)nc(-c2cccnc2)n1` [Example 118, N-[(3S,4R)-4-hydroxyoxolan-3-yl]-2-(pyridin-3-yl)-6-[4-(trifluoromethoxy)phenyl]pyrimidine-4-carboxamide], the figures for the IC50 against Mouse AhR and at Human AhR were 3.4 nM and 2.34 nM, respectively.

With `C[C@H](NC(=O)c1cc(-c2ccc(C(F)F)cc2)nc(-c2cccnc2)n1)C(C)(C)O` [Example 119, 6-[4-(difluoromethyl)phenyl]-N-[(2S)-3-hydroxy-3-methylbutan-2-yl]-2-(pyridin-3-yl)pyrimidine-4-carboxamide], the IC50 was determined as 6.81 nM against Mouse AhR and 2.88 nM at Human AhR.
